Reference: US10988523B2, “Modified lipidated Relaxin B chain peptides and their therapeutic use” (Sanofi, priority 2018, dated 2021)
*1 amine or outer side, *2 acyl side, *3 side chain or, on linkers, in order; H or OH if unused. Where a SMILES comes first, the peptide text is derived from it. Side-chain parts run from the residue outwards. [ ]: non-standard residue; d: D form. The star is where a group is joined. αMeW = C[C@](N)(Cc1c[nH]c2ccccc12)C(=O)O; γGlu = O=C(O)[C@H](CCC(=O)[*:2])N[*:1]; Stearoyl = CCCCCCCCCCCCCCCCCC(=O)*; Palmitoyl = CCCCCCCCCCCCCCCC(=O)*; Myristoyl = CCCCCCCCCCCCCC(=O)*; αMeK = C[C@](N)(CCCCN)C(=O)O; Nle = CCCC[C@H](N)C(=O)O; AEEA = NCCOCCOCC(=O)O; Aib = CC(C)(N)C(=O)O

Molecular target: T1, RXFP1 (Homo sapiens, UniProt Q9HBX9)
T1 construct: OVCAR5 cells expressing endogenous RXFP1; endogenous in cells; host or cells: OVCAR5 cells
T1 sequence (Q9HBX9 1-757): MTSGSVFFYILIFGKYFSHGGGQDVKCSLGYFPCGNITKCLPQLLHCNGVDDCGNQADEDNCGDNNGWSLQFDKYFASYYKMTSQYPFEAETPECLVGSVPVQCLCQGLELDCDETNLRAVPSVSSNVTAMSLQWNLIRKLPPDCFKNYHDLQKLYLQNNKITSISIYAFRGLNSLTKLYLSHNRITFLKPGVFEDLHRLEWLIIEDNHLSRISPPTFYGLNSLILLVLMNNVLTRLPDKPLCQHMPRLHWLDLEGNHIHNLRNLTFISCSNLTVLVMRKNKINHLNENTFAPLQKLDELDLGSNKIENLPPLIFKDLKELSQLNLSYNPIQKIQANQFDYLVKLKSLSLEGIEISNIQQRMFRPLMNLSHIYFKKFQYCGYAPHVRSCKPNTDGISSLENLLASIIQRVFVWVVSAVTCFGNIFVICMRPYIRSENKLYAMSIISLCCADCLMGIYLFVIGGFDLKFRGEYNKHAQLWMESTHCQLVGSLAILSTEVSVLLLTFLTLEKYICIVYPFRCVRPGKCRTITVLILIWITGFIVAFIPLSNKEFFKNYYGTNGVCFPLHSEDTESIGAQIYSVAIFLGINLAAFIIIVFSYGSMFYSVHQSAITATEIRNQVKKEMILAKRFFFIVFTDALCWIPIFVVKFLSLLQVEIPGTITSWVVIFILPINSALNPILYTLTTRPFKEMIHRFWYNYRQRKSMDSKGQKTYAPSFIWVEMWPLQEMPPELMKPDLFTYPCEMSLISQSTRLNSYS
Assay: OVCAR5 cAMP assay (HTRF), RXFP1 agonist activity
Assay type: cell-based
Conditions: for EC50: OVCAR5 cells, cAMP HTRF, read-out: EC50 (nM), OVCAR 5 cells (cAMP); for Emax: OVCAR-5, maximal cAMP relative to H2-relaxin maximum (100%), read-out: EMax, OVCAR 5 cells (cAMP)
Summary of the method: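 OVCAR5 cells (endogenous RXFP1) pretreated 40 min at 37° C with 1 mM IBMX, then exposed to peptides in serum-free medium for 30 min at 37° C. Lysate cAMP read by HTRF; EC50 from variable-slope sigmoidal fit; Emax as % of H2-relaxin maximal cAMP in same run.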

EC50 | Emax | Molecule
0.1 nM | 89% | CCCCCCCCCCCCCCCC(=O)N[C@@H](CCC(=O)N[C@@H](CCC(=O)N[C@@H](CCC(=O)N[C@@H](CCC(=O)NCCCC[C@H](NC(=O)COCCOCCNC(=O)COCCOCCNC(=O)COCCOCCNC(=O)[C@H](CCCCNC(C)=O)NC(=O)[C@H](CCCCN)NC(=O)[C@H](CCCNC(=N)N)NC(=O)[C@](C)(CCCCN)NC(=O)[C@H](CO)NC(=O)[C@](C)(Cc1c[nH]c2ccccc12)NC(=O)[C@@H](NC(=O)[C@H](CO)NC(=O)[C@H](CCCC)NC(=O)CNC(=O)[C@H](CCC(=O)O)NC(=O)C(C)(C)NC(=O)C(C)(C)NC(=O)[C@@H](NC(=O)[C@H](CCCCNC(C)=O)NC(=O)[C@H](C)NC(=O)[C@H](CCCNC(=N)N)NC(=O)[C@@H](NC(=O)[C@H](CCCCN)NC(=O)[C@H](CCC(=O)O)NC(=O)[C@H](CCCNC(=N)N)NC(=O)CNC(=O)[C@H](CCC(=O)O)NC(=O)[C@H](CC(C)C)NC(C)=O)C(C)C)[C@@H](C)CC)[C@@H](C)O)C(N)=O)C(=O)O)C(=O)O)C(=O)O)C(=O)O [compound 125] (Ac-LEGREKVRAK(Ac)I[Aib][Aib]EG[Nle]ST[αMeW]S[αMeK]RKK(Ac)[AEEA][AEEA][AEEA]K([γGlu-γGlu-γGlu-γGlu-Palmitoyl])-NH2)
0.4 nM | 88% | CCCCCCCCCCCCCCCC(=O)N[C@@H](CCC(=O)N[C@@H](CCC(=O)N[C@@H](CCC(=O)N[C@@H](CCC(=O)NCCCC[C@H](NC(=O)COCCOCCNC(=O)COCCOCCNC(=O)COCCOCCNC(=O)COCCOCCNC(=O)[C@H](CCCCNC(C)=O)NC(=O)[C@H](CCCCN)NC(=O)[C@H](CCCNC(=N)N)NC(=O)[C@](C)(CCCCN)NC(=O)[C@H](CO)NC(=O)[C@H](Cc1ccccc1)NC(=O)[C@@H](NC(=O)[C@H](CO)NC(=O)[C@H](CCCC)NC(=O)CNC(=O)[C@H](CCC(=O)O)NC(=O)C(C)(C)NC(=O)C(C)(C)NC(=O)[C@@H](NC(=O)[C@H](CCCCNC(C)=O)NC(=O)[C@H](C)NC(=O)[C@H](CCCNC(=N)N)NC(=O)[C@@H](NC(=O)[C@H](CCCCN)NC(=O)[C@H](CCC(=O)O)NC(=O)[C@H](CCCNC(=N)N)NC(=O)CNC(=O)[C@H](CCC(=O)O)NC(=O)[C@H](CC(C)C)NC(C)=O)C(C)C)[C@@H](C)CC)[C@@H](C)O)C(N)=O)C(=O)O)C(=O)O)C(=O)O)C(=O)O [compound 143] (Ac-LEGREKVRAK(Ac)I[Aib][Aib]EG[Nle]STFS[αMeK]RKK(Ac)[AEEA][AEEA][AEEA][AEEA]K([γGlu-γGlu-γGlu-γGlu-Palmitoyl])-NH2)
17.6 nM | 93% | CCCCCCCCCCCCCC(=O)N[C@@H](CCC(=O)N[C@@H](CCC(=O)N[C@@H](CCC(=O)NCCOCCOCC(=O)NCCOCCOCC(=O)NCCOCCOCC(=O)NCCCC[C@H](NC(=O)[C@H](CCCCNC(C)=O)NC(=O)[C@H](CCCCN)NC(=O)[C@H](CCCNC(=N)N)NC(=O)C(C)(C)NC(=O)[C@H](CO)NC(=O)[C@H](Cc1c[nH]c2ccccc12)NC(=O)[C@@H](NC(=O)[C@H](CO)NC(=O)[C@H](CCCC)NC(=O)CNC(=O)[C@H](CCC(=O)O)NC(=O)C(C)(C)NC(=O)C(C)(C)NC(=O)[C@@H](NC(=O)[C@H](CCCCNC(C)=O)NC(=O)[C@H](C)NC(=O)[C@H](CCCNC(=N)N)NC(=O)[C@@H](NC(=O)[C@H](CCCCN)NC(=O)[C@H](CCC(=O)O)NC(=O)[C@H](CCCNC(=N)N)NC(=O)CNC(=O)[C@H](CCC(=O)O)NC(=O)[C@H](CC(C)C)NC(C)=O)C(C)C)[C@@H](C)CC)[C@@H](C)O)C(N)=O)C(=O)O)C(=O)O)C(=O)O [compound 178] (Ac-LEGREKVRAK(Ac)I[Aib][Aib]EG[Nle]STWS[Aib]RKK(Ac)K([AEEA-AEEA-AEEA-γGlu-γGlu-γGlu-Myristoyl])-NH2)
0.02 nM | 88% | CCCCCCCCCCCCCCCC(=O)N[C@@H](CCC(=O)N[C@@H](CCC(=O)NCCCC[C@H](NC(=O)CC[C@H](NC(=O)CC[C@H](NC(=O)COCCOCCNC(=O)COCCOCCNC(=O)COCCOCCNC(=O)COCCOCCNC(=O)[C@H](CCCCNC(C)=O)NC(=O)[C@H](CCCCN)NC(=O)[C@H](CCCNC(=N)N)NC(=O)[C@](C)(CCCCN)NC(=O)[C@H](CO)NC(=O)[C@H](Cc1ccccc1)NC(=O)[C@@H](NC(=O)[C@H](CO)NC(=O)[C@H](CCCC)NC(=O)CNC(=O)[C@H](CCC(=O)O)NC(=O)C(C)(C)NC(=O)C(C)(C)NC(=O)[C@@H](NC(=O)[C@H](CCCCNC(C)=O)NC(=O)[C@H](C)NC(=O)[C@H](CCCNC(=N)N)NC(=O)[C@@H](NC(=O)[C@H](CCCCN)NC(=O)[C@H](CCC(=O)O)NC(=O)[C@H](CCCNC(=N)N)NC(=O)CNC(=O)[C@H](CCC(=O)O)NC(=O)[C@H](CC(C)C)NC(C)=O)C(C)C)[C@@H](C)CC)[C@@H](C)O)C(=O)O)C(=O)O)C(N)=O)C(=O)O)C(=O)O [compound 159] (Ac-LEGREKVRAK(Ac)I[Aib][Aib]EG[Nle]STFS[αMeK]RKK(Ac)[AEEA][AEEA][AEEA][AEEA][γGlu][γGlu]K([γGlu-γGlu-Palmitoyl])-NH2)
 | 87% | CCCCCCCCCCCCCCCC(=O)N[C@@H](CCC(=O)N[C@@H](CCC(=O)N[C@@H](CCC(=O)NCCOCCOCC(=O)NCCOCCOCC(=O)NCCCC[C@H](NC(=O)[C@H](CCCCNC(C)=O)NC(=O)[C@H](CCCCN)NC(=O)[C@H](CCCNC(=N)N)NC(=O)C(C)(C)NC(=O)[C@H](CO)NC(=O)[C@H](Cc1c[nH]c2ccccc12)NC(=O)[C@@H](NC(=O)[C@H](CO)NC(=O)[C@H](CCCC)NC(=O)CNC(=O)[C@H](CCC(=O)O)NC(=O)C(C)(C)NC(=O)C(C)(C)NC(=O)[C@@H](NC(=O)[C@H](CCCCNC(C)=O)NC(=O)[C@H](C)NC(=O)[C@H](CCCNC(=N)N)NC(=O)[C@@H](NC(=O)[C@H](CCCCN)NC(=O)[C@H](CCC(=O)O)NC(=O)[C@H](CCCNC(=N)N)NC(=O)CNC(=O)[C@H](CCC(=O)O)NC(=O)[C@H](CC(C)C)NC(C)=O)C(C)C)[C@@H](C)CC)[C@@H](C)O)C(N)=O)C(=O)O)C(=O)O)C(=O)O [compound 62] (Ac-LEGREKVRAK(Ac)I[Aib][Aib]EG[Nle]STWS[Aib]RKK(Ac)K([AEEA-AEEA-γGlu-γGlu-γGlu-Palmitoyl])-NH2)
0.16 nM | 89% | CCCCCCCCCCCCCCCCCC(=O)N[C@@H](CCC(=O)NCCOCCOCC(=O)NCCOCCOCC(=O)N[C@@H](CCC(=O)N[C@@H](CCC(=O)NCCCC[C@H](NC(=O)[C@H](CCCCN)NC(=O)[C@H](CCCNC(=N)N)NC(=O)C(C)(C)NC(=O)[C@H](CO)NC(=O)[C@H](Cc1c[nH]c2ccccc12)NC(=O)[C@@H](NC(=O)[C@H](CO)NC(=O)[C@H](CCCC)NC(=O)CNC(=O)[C@H](CCC(=O)O)NC(=O)C(C)(C)NC(=O)C(C)(C)NC(=O)[C@@H](NC(=O)[C@H](CCC(N)=O)NC(=O)[C@H](C)NC(=O)[C@H](CCCNC(=N)N)NC(=O)[C@@H](NC(=O)[C@H](CCCCN)NC(=O)[C@H](CCC(=O)O)NC(=O)[C@H](CCCNC(=N)N)NC(=O)CNC(=O)[C@H](CCC(=O)O)NC(=O)[C@H](CC(C)C)NC(C)=O)C(C)C)[C@@H](C)CC)[C@@H](C)O)C(N)=O)C(=O)O)C(=O)O)C(=O)O [compound 104] (Ac-LEGREKVRAQI[Aib][Aib]EG[Nle]STWS[Aib]RKK([γGlu-γGlu-AEEA-AEEA-γGlu-Stearoyl])-NH2)
 | 87% | CCCCCCCCCCCCCCCCCC(=O)N[C@@H](CCC(=O)N[C@@H](CCC(=O)N[C@@H](CCC(=O)NCCOCCOCC(=O)NCCOCCOCC(=O)NCCCC[C@H](NC(=O)[C@H](CCCCN)NC(=O)[C@H](CCCCN)NC(=O)[C@H](CCCNC(=N)N)NC(=O)C(C)(C)NC(=O)[C@H](CO)NC(=O)[C@H](Cc1c[nH]c2ccccc12)NC(=O)[C@@H](NC(=O)[C@H](CO)NC(=O)[C@H](CCCC)NC(=O)CNC(=O)[C@H](CCC(=O)O)NC(=O)C(C)(C)NC(=O)C(C)(C)NC(=O)[C@@H](NC(=O)[C@H](CCC(N)=O)NC(=O)[C@H](C)NC(=O)[C@H](CCCNC(=N)N)NC(=O)[C@@H](NC(=O)[C@H](CCCCN)NC(=O)[C@H](CCC(=O)O)NC(=O)[C@H](CCCNC(=N)N)NC(=O)CNC(=O)[C@H](CCC(=O)O)NC(=O)[C@H](CC(C)C)NC(C)=O)C(C)C)[C@@H](C)CC)[C@@H](C)O)C(N)=O)C(=O)O)C(=O)O)C(=O)O [compound 71] (Ac-LEGREKVRAQI[Aib][Aib]EG[Nle]STWS[Aib]RKKK([AEEA-AEEA-γGlu-γGlu-γGlu-Stearoyl])-NH2)
0.41 nM |  | 174 (Ac-LEGREKVRAQI[Aib][Aib]EG[Nle]STWS[Aib]RKKK-NH2; not fully specified (residue 25); printed as Ac-L-E-G-R-E-K-V-R-A-Q-I-Aib-Aib-E-G-Nle-S-T-W-S-Aib-R-K-K-K(PEG2-PEG2-PEG2-gE-gE-gE-Stea)-NH2) [compound 174]
